Results on five compounds are retold here after US20090258863A1, “Method for treatment of amyotrophic lateral sclerosis using talampanel” (priority 2008, published 2009).

Series [1] in a line: Prior clinical trials with talampanel: safety and tolerability. The note with it: previous clinical trials.
Experimental: (§5) In this study, the daily dose is increased by 12.5 mg or 25 mg daily each week to reach 75 mg or 150 mg daily (25 mg t.i.d. or 50 mg t.i.d.) respectively, at the 4th to 6th week or at the 11th to 12th week if needed.
Series [2] relates to subjects with ALS. As to the kind of experiment: Example 3: another clinical trial according to the procedure of Example 1. The format is in vivo, human. The protocol:
(§1) A subject is assessed for study eligibility at a screening visit (one to 4 weeks prior to baseline). Subjects who are found eligible to participate in the study are randomized in a 2:1:2 ratio into one of the following three treatment groups based on a randomization scheme with blocks stratified by center: • 1. 50 mg (25 mg capsule×2) talampanel t.i.d. (150 mg daily) • 2. 25 mg (12.5 mg capsule×2) talampanel t.i.d. (75 mg daily) • 3. Placebo
(§2) After undergoing randomization subjects receive their first dose of study treatment on site. There are two possible escalation periods to reach maximal dose of 6 capsules per day, as follows: • Screening Period Up to 4 weeks but not less than 1 week. The period between screening visit and baseline visit. During this time period all relevant data for the assessment of subjects eligibility should be collected and reviewed i.e. lab results, ECG, medical history etc. • First Escalation Period: A period of 4 to 6 weeks, following screening period. This period starts at baseline visit, following randomization; • Second Escalation Period: A period of 2 weeks, this period starts at week 10 visit and ends at week 12 visit. • Maintenance Period: A time period of 46 to 48 weeks, following the first escalation period, starting after reaching maximal achieved dose in the first escalation period. During this period oral administration of talampanel 25 mg t.i.d., 50 mg t.i.d. (or maximal achieved dose) or matching oral placebo is maintained.
(§3) The first escalation period is a period of 4-6 weeks, following randomization. The dose escalation plan for the 25 mg and 50 mg t.i.d. dose levels, respectively, is as follows: • First week: from baseline visit to week 1 (telephone visit): Three capsules (37.5 mg or 75 mg daily) one each a.m., mid-day and p.m. dosing. • Second week: from week 1 (telephone visit) to week 2 (telephone visit): Four capsules (50 mg or 100 mg daily) one each a.m. & mid-day, two at p.m. dosing. • Third week: from week 2 (telephone visit) to week 3 (telephone visit): Five capsules (62.5 mg or 125 mg daily) two at a.m. one in mid-day and two at p.m. dosing. • Fourth week: from week 3 (telephone visit) to week 4 on site visit: Six capsules (75 mg or 150 mg daily) two at each a.m., mid-day and p.m. dosing.
(§4) At in-clinic visits the following are assessed: • Revised ALS Functional Rating Scale (ALSFRS-R) (screening, baseline, weeks 4-6, 12, 26, 40, 52/ET and unscheduled) • Slow VC (screening, baseline, weeks 4-6, 12, 26, 40, 52/ET and unscheduled) • Manual Muscle Testing (MMT) (baseline, weeks 12, 26, 40, 52/ET and unscheduled) • ALS-Specific Quality of life (ALSSQoL) scale (baseline, weeks 26, 52/ET) [US and Canada Only] • EuroQol-5 Dimensions (EQ-5D) health outcomes scale (baseline, weeks 4-6, 12, 26, 40 and 52/ET) • Health Care Resource Utilization Questionnaire for ALS (baseline, weeks 4-6, 12, 26, 40, 52/ET) • Caregiver burden questionnaire, Zarit Burden Interview (ZBI) [caregiver] (Baseline, weeks 12, 26, 40, 52/ET) • Laboratory (screening, baseline, weeks 4-6, 12, 26, 40, 52/ET and unscheduled) • ECG (screening, baseline (3 times), weeks 4-6, 12, 26, 40, 52/ET and unscheduled) • Physical examination (screening, baseline, weeks 4-6, 12, 26, 40 and 52/ET and unscheduled) • Vital signs and weights (screening, baseline, weeks 4-6, 12, 26, 40 and 52/ET and unscheduled) • Check of concomitant medications, AEs and compliance • Pharmacokinetics (PK): Safety Pharmacokinetics (PK) blood samples are taken after at least 3 days on the maximal achieved dose at end of first escalation period at week 4-6 (pre-dose, anytime in the range of 0.5-2 hours post-dose and anytime in the range of 2-4 hours post dose with at least 1 hour difference between the 2 post dose samples) and at week 12 (pre-dose, anytime in the range of 0.5-2 hours post-dose and anytime in the range of 2-4 hours post dose with at least 1 hour difference between the 2 post dose samples). […]

For series [3], the system named is subjects with ALS. As to the kind of experiment: Example 4: another clinical trial according to the procedure of Example 1. The format is in vivo, human. The protocol: as §1, §2, §3, §4
The subject of the next series is ALS. As to the kind of experiment: Pilot study of talampanel in ALS, 50 mg t.i.d. vs placebo. The format is in vivo, human. The settings on record: placebo −10.2, p=0.08, positive trend. As to the method: A pilot study of talampanel in ALS compared 50 mg t.i.d of talampanel to placebo. The study found a positive trend in the ALSFRS scores of talampanel treated relative to placebo (average score −7.1 vs. −10.2, p=0.08).

For series [4] the following is noted: human, in vivo.
Experimental: as §5
For series [5], the system named is subjects with ALS. As to the kind of experiment: Example 2: another clinical trial according to the procedure of Example 1. The format is in vivo, human. The protocol:
as §1, §2, §3, §4

The subject of series [6] is N-acetyltransferse NAT2 isozymes. Put plainly: Previous clinical trial: N-acetylation of talampanel by NAT2. The format is in vivo, human. An excerpt:
N-acetylation was identified as one metabolic pathway of talampanel, catalyzed by N-acetyltransferse NAT2 isozymes. A genetic polymorphism in the NAT2 gene affects the acetylation rate. […] The three common slow acetylator alleles identified are NAT2*5A, NAT2*6A and NAT2*7A. The NAT2*5 alleles have the greatest reductions in metabolic activation while NAT2*6 alleles have more moderate reductions and NAT2*7 alleles have the smallest, but yet significant, reductions. The frequency of NAT2 slow acetylators (about 2-10% in Asian, 60-70% in Caucasians, 30-40% in Africans) and NAT2 fast acetylators (about 40-60% in Asian, 3-15% in Caucasian, 10-25% in Africans) varies markedly with ethnicity.

Series [7] relates to AMPA subtype of glutamate excitatory amino acid receptors. The note with it: AMPA antagonist; cited from earlier work.
The subject of series [8] is motor neurons. The settings on record: organotypic spinal cord slice model; cited from earlier work.
A further series has as its system ALS patients. The settings on record: cited from earlier work.
For a further series, the system named is mouse model of ALS. The note with it: Van Damme et al. 2003; cited from earlier work.
For series [9], the system named is motor neurons. The note with it: in vitro; cited from earlier work.
In another series the test system is GABA receptor complex. The settings on record: Tarnawa et al. 1989; cited from earlier work.
Setting [10] is: 50 mg t.i.d., statistically significant.
Setting [11] is: talampanel group, dose not stated, vs placebo.

Molecules are shown by their SMILES.

For the compound `CC(=O)N1N=C(c2ccc(N)cc2)c2cc3c(cc2C[C@H]1C)OCO3` [talampanel], the “adverse events when the dose is gradually increased over time” value in series [1] is listed as “reduced”. For the same compound, the “decrease in the slopes of ALSFRS-R as compared to placebo” value with subjects with ALS [2] (25 mg t.i.d.) turned out to be 25%; in the series with subjects with ALS [2] (setting [10]), 25%; in the series on subjects with ALS [3] (25 mg t.i.d.) it was 30%; in the series with subjects with ALS [3] (setting [10]), 30%; with subjects with ALS [5] (25 mg t.i.d.), 20%; with subjects with ALS [5] (setting [10]) it was 20%. In addition, the “risk of either death, tracheostomy, or permanent assisted ventilation” value with subjects with ALS [2] (25 mg t.i.d.) was “reduction”; in the series with subjects with ALS [2] (50 mg t.i.d.), “decrease”; in the series with subjects with ALS [3] (25 mg t.i.d.), “reduction”; with subjects with ALS [3] (50 mg t.i.d.), “decrease”; with subjects with ALS [5] (25 mg t.i.d.), “reduction”; in the series with subjects with ALS [5] (50 mg t.i.d.), “decrease”. Further, the “adjusted mean change from baseline in MMT across visits” value with subjects with ALS [2] (50 mg t.i.d vs placebo), in the series with subjects with ALS [3] (50 mg t.i.d. vs placebo) and in the series with subjects with ALS [5] (50 mg t.i.d. vs placebo) was “decrease” in each case. Also, the “decrease in the change in ALSFRS-R from baseline to LOV in comparison to placebo” value is listed as 25% with subjects with ALS [2] (50 mg t.i.d.), 30% with subjects with ALS [3] (50 mg t.i.d.) and 20% in the series with subjects with ALS [5] (50 mg t.i.d.). Besides, the “adjusted mean change from baseline in Slow VC across visits” value with subjects with ALS [2] (50 mg t.i.d. vs placebo), with subjects with ALS [3] (50 mg t.i.d. vs placebo) and in the series on subjects with ALS [5] (50 mg t.i.d. vs placebo) was “decrease” throughout. The “slopes of MMT” value in the series on subjects with ALS [2] (50 mg t.i.d. vs placebo), in the series with subjects with ALS [3] (50 mg t.i.d. vs placebo) and in the series with subjects with ALS [5] (50 mg t.i.d. vs placebo) was “decrease” in each case. Further, the “slopes of Slow VC” value in the series on subjects with ALS [2] (50 mg t.i.d. vs placebo), in the series on subjects with ALS [3] (50 mg t.i.d. vs placebo) and in the series on subjects with ALS [5] (50 mg t.i.d. vs placebo) was “decrease” each time. The “change in MMT from baseline to LOV” value in the series with subjects with ALS [2] (setting [11]), in the series with subjects with ALS [3] (setting [11]) and with subjects with ALS [5] (setting [11]) was “decrease” each time. Also, in the series with ALS, the “ALSFRS scores, average score” value is reported as −7.1. For the same compound, in series [4], the “safety and tolerability of the dose” value was “safe and tolerated”. Also, in series [6] (metabolic pathway), the “N-acetylation dependence on NAT2 activity” value was “highly dependent on NAT2 activity”. Also, the “potency relative to GYKI-52466” value in series [7] was “more potent”.

In the case of `CC(=O)Nc1ccc(C2=NN(C(C)=O)C(C)Cc3cc4c(cc32)OCO4)cc1` (stereo not drawn) [NAC talampanel], the “measurable levels of NAC talampanel by acetylator status” value in series [6] (human, in vivo) was “seen primarily in fast acetylator subjects, but not in slow acetylators”.

For `CC1(C)O[C@@H]2[C@@H](CO[C@@]3(COS(N)(=O)=O)OC(C)(C)O[C@@H]23)O1` [topiramate], the “protection of motor neurons” value in the series with motor neurons [8] is “protected motor neurons”. Besides, the “benefit in clinical trial in ALS patients” value with ALS patients (Cudkowicz et al. 2003) was “no benefit”. For the same compound, the “adverse events in patients” value in the series with ALS patients (including dramatic weight loss) is listed as “significant adverse events”.

In the case of `NS(=O)(=O)c1cccc2c1c([N+](=O)[O-])cc1nc(O)c(O)nc12` [NBQX], in the series with mouse model of ALS, the “prolonged survival in ALS mice” value was 14 days. The “kainate induced calcium entry into motor neurons” value in the series on motor neurons [9] is “blocked”.

With `CC1=NN=C(c2ccc(N)cc2)c2cc3c(cc2C1)OCO3` [GYKI-52466], the “1,4-benzodiazepine (diazepam-like) activity at the GABA receptor complex” value with GABA receptor complex is given as “no classical 1,4-benzodiazepine (that is, “diazepam-like”) activity”.
